Reference: patent US8455487B2, “Methods of controlling insects” (Syngenta Participations AG, priority 2007, dated 2013)

Experiments:
pollen beetles [1] = test: B.2 unreplicated field test, control of pollen beetle in winter oilseed rape (vs lambda-cyhalothrin); assay type: in vivo, Meligethes; details: for % Control 1DAA: foliar
Description: An unreplicated field test was carried out on Winter oilseed rape, (crop stage BBCH 55) and which was under attack by actively foraging pollen beetles (adult beetles: 2.32 beetle/flower cluster). The active ingredient pymetrozine ((E)-4,5-dihydro-6-methyl-4-(3-pyridylmethyleneamino)-1,2,4-triazin-3(2H)-one; formulated as Chess 50% WG) was tested at rates of 12.5, 50 and 200 g ai/ha and compared to the activity of lambda-cyhalothrin (formulated as Karate Zeon 10CS) at 5 g ai/ha. Foliar application of the compounds under test was effected using a conventional spray boom. The degree of pest infestation was assessed pre-spray (average of 2.3 adult pollen beetles per flower cluster in the check plot) and compared to that observed 1day after application.

[2] = tested on: pyrethroid resistant Pollen Beetle; test: B.5 three field trials, control of pyrethroid resistant pollen beetle in oilseed rape; assay type: in vivo, Meligethes; details: foliar
Description: Three further field trials (randomized complete block, 25 plants per plot) were carried out on oilseed rape, which had reached crop stage BBCH 57-63 and which was under attack by actively foraging pollen beetles (adult beetles: average of 27 adult beetles/plot). The active ingredient pymetrozine ((E)-4,5-dihydro-6-methyl-4-(3-pyridylmethylene-amino)-1,2,4-triazin-3(2H)-one; formulated as Plenum 50% WG) was tested at rates of 75, 100 and 150 g ai/ha and compared to the activity of lambda cyhalothrin (7.5 g ai/ha) and thiacloprid (72 g ai/ha). Foliar application of the compounds under test was effected using a conventional spray boom and a volume of 300 L/ha. The degree of pest control was assessed pre-spray, and compared to that observed 1, 4 and 7 days after application.

[3] = tested on: pyrethroid resistant Pollen Beetle; test: B.4 field trial, control of pyrethroid resistant pollen beetle in oilseed rape; assay type: in vivo, Meligethes
Description: A further field trial (randomized complete block, 30 racemes per plot) was carried out on oilseed rape, which had reached crop stage BBCH 57-59 (individual flower buds—secondary inflorescence—visible but still closed) and which was under attack by actively foraging pollen beetles (adult beetles: average of 30 adult beetles/plot). The active ingredient pymetrozine ((E)-4,5-dihydro-6-methyl-4-(3-pyridylmethylene-amino)-1,2,4-triazin-3(2H)-one; formulated as Plenum 50% WG) was tested at rates of 50, 100 and 150 g ai/ha and compared to the activity of lambda cyhalothrin (7.5 g ai/ha) and thiacloprid (72 g ai/ha). Foliar application of the compounds under test was effected using a conventional spray boom and a volume of 500 L/ha. The degree of pest control was assessed pre-spray, and compared to that observed 1 and 3 days after application.

pollen beetles [4] = test: B.3 field trial, control of pollen beetle in oilseed rape, extremely high pest pressure (vs lambda cyhalothrin and thiacloprid); assay type: in vivo, Meligethes; details: foliar
Description: A third field trial (randomized complete block) was carried out on oilseed rape, which had reached crop stage BBCH 55 (new growth with 30 to 60 cm height; flower buds, open flowers, some small seed pods formed) and which was under attack by actively foraging pollen beetles (adult beetles: 10 beetle/flower cluster). The active ingredient pymetrozine ((E)-4,5-dihydro-6-methyl-4-(3-pyridylmethyleneamino)-1,2,4-triazin-3(2H)-one; formulated as Plenum 50% WG) was tested at rates of 50, 100 and 150 g ai/ha and compared to the activity of lambda cyhalothrin (7.5 g ai/ha) and thiacloprid (72 g ai/ha). Foliar application of the compounds under test was effected using a conventional spray boom and a volume of 400 L/ha. The degree of pest control was assessed pre-spray, and compared to that observed 2 hours, 1, 3 and 5 days after application.

pollen beetles [5] = test: B.1 field trial, control of pollen beetle in winter oilseed rape (vs Lavender oil and Quassan 30); assay type: in vivo, Meligethes; details: foliar
Description: A randomized complete block field trial was carried out on winter oilseed rape, which had reached crop stage BBCH 55 (flower buds, open flowers, some small seed pods formed) and which was under attack by actively foraging pollen beetles (adult beetles: 1 beetle/flower cluster). The active ingredient pymetrozine ((E)-4,5-dihydro-6-methyl-4-(3-pyridylmethyleneamino)-1,2,4-triazin-3(2H)-one; formulated as Plenum 50% WG) was tested at rates of 50 and 150 g ai/ha and compared to the activity of Lavender oil (at rates of 1000 g ai/ha and 2500 g ai/ha) and Quassia amara extract (Quassan 30; applied at rates of 30, 90 and 270 g ai/ha). Foliar application of the compounds under test was effected using a conventional spray boom and a volume of 500 L/ha. The degree of pest control was assessed pre-spray, and compared to that observed 1, 3 and 5 days after application.

[6] = tested on: insects from the Staphylinidae family; details: Sechser et al. 2002 J. Pest Science 75:72-77; cited from earlier work
[7] = tested on: insects from the Coccinellidae family; details: Sechser et al. 2002 J. Pest Science 75:72-77; cited from earlier work
[8] = tested on: insects from the Carabidae family; details: Sechser et al. 2002 J. Pest Science 75:72-77; cited from earlier work

Q: For `CC1(C)[C@H](C(=O)O[C@H](C#N)c2cccc(Oc3ccccc3)c2)[C@@H]1/C=C(\Cl)C(F)(F)F` (racemic) [Lambda cyhalothrin], which “% Control 1DAA” value (pollen beetles [1]; 5 g ai/ha, 1DAA) is on record?
A: 100%

Q: What about the “Mean % Control” value ([2]; 7.5 g ai/ha, 1 DAA) of the same compound?
A: 33.0%

Q: What about the “Mean % Control” value ([2]; 7.5 g ai/ha, 4 DAA) of the same compound?
A: 20.0%

Q: What about the “Mean % Control” value ([2]; 7.5 g ai/ha, 7 DAA) of the same compound?
A: 18.1%

Q: What about the “% Control” value ([3]; 7.5 g ai/ha, foliar, 1 DAA) of the same compound?
A: 73%

Q: And the “% Control” value ([3]; 7.5 g ai/ha, foliar, 3 DAA)?
A: 60%

Q: And the “level of control (in words)” value ([3]; recommended field rate (7.5 g ai/ha))?
A: low level of control

Q: And the “% Control” value (pollen beetles [4]; 7.5 g ai/ha, 1 DAA)?
A: 75%

Q: What about the “% Control” value (pollen beetles [4]; 7.5 g ai/ha, 3 DAA) of the same compound?
A: 92%

Q: And the “% Control” value (pollen beetles [4]; 7.5 g ai/ha, 5 DAA)?
A: 23%

Q: And the “% Control” value (pollen beetles [4]; 7.5 g ai/ha, 2 hrs aa)?
A: 63.4%

Q: Which “Percentage Control” value (pollen beetles [5]; 50 g ai/ha, 1 DAA) does the source give for `CC1=NNC(=O)N(N=Cc2cccnc2)C1` [Pymetrozine, 4,5-dihydro-6-methyl-4-(3-pyridylmethyleneamino)-1,2,4-triazin-3(2H)-one] here?
A: 90%

Q: And the “Percentage Control” value (pollen beetles [5]; 50 g ai/ha, 3 DAA)?
A: 98%

Q: And the “Percentage Control” value (pollen beetles [5]; 50 g ai/ha, 5DAA)?
A: 99%

Q: What about the “Percentage Control” value (pollen beetles [5]; 150 g ai/ha, 1 DAA) of the same compound?
A: 86%

Q: And the “Percentage Control” value (pollen beetles [5]; 150 g ai/ha, 3 DAA)?
A: 92%

Q: And the “Percentage Control” value (pollen beetles [5]; 150 g ai/ha, 5DAA)?
A: 95%

Q: What about the “% Control 1DAA” value (pollen beetles [1]; 12.5 g ai/ha, 1DAA) of the same compound?
A: 90%

Q: What about the “% Control 1DAA” value (pollen beetles [1]; 50 g ai/ha, 1 DAA) of the same compound?
A: 98%

Q: What about the “% Control 1DAA” value (pollen beetles [1]; 200 g ai/ha, 1DAA) of the same compound?
A: 100%

Q: What about the “control of Meligethes (in words)” value (pollen beetles [1]; at all rates (12.5, 50, 200 g ai/ha), 1DAA) of the same compound?
A: excellent control

Q: What about the “effect on insects (in words)” value [6] of the same compound?
A: no effect

Q: And the “effect on insects (in words)” value [7]?
A: no effect

Q: What about the “Mean % Control” value ([2]; 75 g ai/ha, 1 DAA) of the same compound?
A: 89.9%

Q: What about the “Mean % Control” value ([2]; 75 g ai/ha, 4 DAA) of the same compound?
A: 72.4%

Q: What about the “Mean % Control” value ([2]; 75 g ai/ha, 7 DAA) of the same compound?
A: 92.8%

Q: And the “Mean % Control” value ([2]; 100 g ai/ha, 1 DAA)?
A: 87.2%

Q: What about the “Mean % Control” value ([2]; 100 g ai/ha, 4 DAA) of the same compound?
A: 72.9%

Q: What about the “Mean % Control” value ([2]; 100 g ai/ha, 7 DAA) of the same compound?
A: 92.8%

Q: What about the “Mean % Control” value ([2]; 150 g ai/ha, 1 DAA) of the same compound?
A: 95.2%

Q: And the “Mean % Control” value ([2]; 150 g ai/ha, 4 DAA)?
A: 77.4%

Q: What about the “Mean % Control” value ([2]; 150 g ai/ha, 7 DAA) of the same compound?
A: 91.3%

Q: And the “effect on insects (in words)” value [8]?
A: no effect

Q: What about the “% Control” value ([3]; 3DAA, rates 50, 100 and 150 g ai/ha) of the same compound?
A: > 90%

Q: And the “% Control” value ([3]; 50 g ai/ha, foliar, 1 DAA)?
A: 60%

Q: What about the “% Control” value ([3]; 50 g ai/ha, foliar, 3 DAA) of the same compound?
A: 96%

Q: What about the “% Control” value ([3]; 100 g ai/ha, foliar, 1 DAA) of the same compound?
A: 62%

Q: And the “% Control” value ([3]; 100 g ai/ha, foliar, 3 DAA)?
A: 97%

Q: What about the “% Control” value ([3]; 150 g ai/ha, foliar, 1 DAA) of the same compound?
A: 78%

Q: And the “% Control” value ([3]; 150 g ai/ha, foliar, 3 DAA)?
A: 96%

Q: And the “% Control” value (pollen beetles [4]; 50 g ai/ha, 1 DAA)?
A: 19%

Q: And the “% Control” value (pollen beetles [4]; 50 g ai/ha, 3 DAA)?
A: 44%

Q: What about the “% Control” value (pollen beetles [4]; 50 g ai/ha, 5DAA) of the same compound?
A: 0%

Q: What about the “% Control” value (pollen beetles [4]; 50 g ai/ha, 2 hrs aa) of the same compound?
A: 37.3%

Q: And the “% Control” value (pollen beetles [4]; 100 g ai/ha, 1 DAA)?
A: 61%

Q: And the “% Control” value (pollen beetles [4]; 100 g ai/ha, 3 DAA)?
A: 77%

Q: And the “% Control” value (pollen beetles [4]; 100 g ai/ha, 5 DAA)?
A: 0%

Q: What about the “% Control” value (pollen beetles [4]; 100 g ai/ha, 2 hrs aa) of the same compound?
A: 39.9%

Q: And the “% Control” value (pollen beetles [4]; 150 g ai/ha, 1 DAA)?
A: 61%

Q: What about the “% Control” value (pollen beetles [4]; 150 g ai/ha, 3 DAA) of the same compound?
A: 84%

Q: What about the “% Control” value (pollen beetles [4]; 150 g ai/ha, 5DAA) of the same compound?
A: 0%

Q: What about the “% Control” value (pollen beetles [4]; 150 g ai/ha, 2 hrs aa) of the same compound?
A: 42.5%

Q: For `N#C/N=C1\SCCN1Cc1ccc(Cl)nc1` [Thiacloprid], which “Mean % Control” value ([2]; 72 g ai/ha, 1 DAA) is on record?
A: 74.7%

Q: What about the “Mean % Control” value ([2]; 72 g ai/ha, 4 DAA) of the same compound?
A: 92.5%

Q: What about the “Mean % Control” value ([2]; 72 g ai/ha, 7 DAA) of the same compound?
A: 78.3%

Q: What about the “% Control” value ([3]; 72 g ai/ha, foliar, 1 DAA) of the same compound?
A: 63%

Q: What about the “% Control” value ([3]; 72 g ai/ha, foliar, 3 DAA) of the same compound?
A: 94%

Q: And the “% Control” value (pollen beetles [4]; 72 g ai/ha, 1 DAA)?
A: 67%

Q: And the “% Control” value (pollen beetles [4]; 72 g ai/ha, 3 DAA)?
A: 92%

Q: And the “% Control” value (pollen beetles [4]; 72 g ai/ha, 5 DAA)?
A: 0%

Q: And the “% Control” value (pollen beetles [4]; 72 g ai/ha, 2 hrs aa)?
A: 39.9%
